Source: ChEMBL document CHEMBL5104171 (Bioorg Med Chem Lett, 2022)
pIC50: −log10 of the molar value. In brackets after ≈: the same amount, converted by molar mass.

Experiments:
[1] = Inhibition of RANKL-induced human osteoclast precursor cells differentiation in presence of human M-CSF and measured by tartrate-resistant acid phosphatase activity assay; assay type: functional, cell-based
[2] = Plasma concentration in DBA/1 mouse at 15 mg/kg, po administered once daily for 6 days and measured at 12 hrs; assay type: ADME, organism-based; conditions: time 6 day
[3] = Plasma concentration in DBA/1 mouse at 15 mg/kg, po administered once daily for 6 days and measured at 24 hrs; assay type: ADME, organism-based; conditions: time 6 day
[4] = Plasma concentration in DBA/1 mouse at 15 mg/kg, po administered once daily for 6 days and measured at 4 hrs; assay type: ADME, organism-based; conditions: time 6 day
animal or person [5] = conditions: Mus musculus, DBA/1, 144 h, read-out: INH
animal or person [6] = conditions: Mus musculus, DBA/1, 144 h, read-out: INH; remark: listed apart in the source
[7] = Permeability across apical to basolateral side in human Caco-2 cells; assay type: ADME, cell-based; conditions: read-out: permeability
animal or person [8] = conditions: Mus musculus, DBA/1, 144 h, read-out: INH; remark: listed apart in the source
[9] = Metabolic stability in mouse liver microsomes assessed as compound remaining at 60 mins; assay type: ADME, Microsome; conditions: read-out: Stability
[10] = Aqueous solubility of compound at pH 7.4; assay type: physicochemical
[11] = Plasma concentration in DBA/1 mouse at 15 mg/kg, po administered once daily for 6 days and measured at 2 hrs; assay type: ADME, organism-based; conditions: time 6 day
[12] = Plasma concentration in DBA/1 mouse at 15 mg/kg, po administered once daily for 6 days and measured at 18 hrs; assay type: ADME, organism-based; conditions: time 6 day
[13] = Plasma protein binding in human; assay type: ADME, cell-free; conditions: read-out: PPB (converted)
animal or person [14] = conditions: Mus musculus, DBA/1, 144 h, read-out: INH; remark: listed apart in the source
animal or person [15] = conditions: Mus musculus, DBA/1, 144 h, read-out: INH; remark: listed apart in the source
[16] = Plasma concentration in DBA/1 mouse at 15 mg/kg, po administered once daily for 6 days and measured at 8 hrs; assay type: ADME, organism-based; conditions: time 6 day
animal or person [17] = conditions: Mus musculus, DBA/1, 144 h, read-out: INH; remark: listed apart in the source
[18] = Plasma concentration in DBA/1 mouse at 15 mg/kg, po administered once daily for 6 days and measured at 6 hrs; assay type: ADME, organism-based; conditions: time 6 day
animal or person [19] = conditions: Mus musculus, DBA/1, 144 h, read-out: INH; remark: listed apart in the source
[20] = Metabolic stability in human liver microsomes assessed as compound remaining at 60 mins; assay type: ADME, Microsome; conditions: read-out: Stability
[21] = Plasma protein binding in mouse; assay type: ADME, cell-free; conditions: read-out: PPB (converted)
[22] = biological target: Hepatocyte growth factor receptor (Homo sapiens, UniProt P08581); assay: Inhibition of N-terminal His-Glu-TEV-tagged MET (unknown origin) (1050 to 1360 residues) measured by spectrophotometric analysis
Sequence of Hepatocyte growth factor receptor (P08581 whole entry, the tested form may be a part): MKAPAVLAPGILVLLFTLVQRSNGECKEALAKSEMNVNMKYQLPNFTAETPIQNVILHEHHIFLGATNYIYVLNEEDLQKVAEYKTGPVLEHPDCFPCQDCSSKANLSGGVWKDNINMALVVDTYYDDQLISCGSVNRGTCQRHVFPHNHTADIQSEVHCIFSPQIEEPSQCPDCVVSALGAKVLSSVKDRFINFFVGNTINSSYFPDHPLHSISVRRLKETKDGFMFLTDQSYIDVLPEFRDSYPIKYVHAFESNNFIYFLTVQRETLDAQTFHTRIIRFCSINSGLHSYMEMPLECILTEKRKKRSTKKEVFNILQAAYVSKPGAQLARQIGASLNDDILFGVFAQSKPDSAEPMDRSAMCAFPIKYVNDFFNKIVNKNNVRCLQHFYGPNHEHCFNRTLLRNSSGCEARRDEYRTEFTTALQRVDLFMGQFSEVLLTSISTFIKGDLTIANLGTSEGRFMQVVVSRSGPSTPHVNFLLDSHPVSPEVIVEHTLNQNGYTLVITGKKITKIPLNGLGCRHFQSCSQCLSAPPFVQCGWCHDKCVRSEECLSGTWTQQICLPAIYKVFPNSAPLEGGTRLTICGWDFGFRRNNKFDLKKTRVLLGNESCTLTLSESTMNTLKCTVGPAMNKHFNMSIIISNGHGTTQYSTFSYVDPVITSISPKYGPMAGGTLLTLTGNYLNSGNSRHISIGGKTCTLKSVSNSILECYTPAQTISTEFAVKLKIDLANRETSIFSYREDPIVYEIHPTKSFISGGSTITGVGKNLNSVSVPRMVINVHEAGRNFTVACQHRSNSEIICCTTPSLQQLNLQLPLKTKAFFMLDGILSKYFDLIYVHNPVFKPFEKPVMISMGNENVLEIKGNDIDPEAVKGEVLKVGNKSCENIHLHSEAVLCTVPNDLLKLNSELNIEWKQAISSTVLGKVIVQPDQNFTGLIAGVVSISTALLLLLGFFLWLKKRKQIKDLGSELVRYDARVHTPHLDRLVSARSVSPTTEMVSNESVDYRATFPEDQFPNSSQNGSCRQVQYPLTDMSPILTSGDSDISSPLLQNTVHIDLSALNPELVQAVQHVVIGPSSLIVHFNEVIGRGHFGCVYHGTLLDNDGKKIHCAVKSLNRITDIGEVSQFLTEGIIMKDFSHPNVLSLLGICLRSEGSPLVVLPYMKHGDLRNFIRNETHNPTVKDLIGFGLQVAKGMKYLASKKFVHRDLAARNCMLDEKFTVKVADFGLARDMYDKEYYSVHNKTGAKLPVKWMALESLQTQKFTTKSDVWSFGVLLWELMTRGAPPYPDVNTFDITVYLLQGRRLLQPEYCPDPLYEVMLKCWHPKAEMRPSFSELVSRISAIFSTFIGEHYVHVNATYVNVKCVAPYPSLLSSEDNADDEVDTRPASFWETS

## CN(C)CC(=O)N1CCC(c2ccc(NC(=O)c3nc(C#N)c[nH]3)c(C3=CCCCC3)c2)CC1
[1]
  pIC50: 8.77

## Cc1nc(NC(=O)NC(=O)C(C)(C)C)ccc1Oc1ccnc(-c2cnn(C)c2)c1
[2]
  concentration at 144 h: 163 ng/mL
[3]
  concentration at 144 h: 86 ng/mL
[4]
  concentration at 144 h: 1860 ng/mL
Animal or person [5]
  inhibition in vivo at 15 mg/kg: 89%
Animal or person [6]
  inhibition in vivo at 15 mg/kg: 75%
[7]
  Papp A→B: 13.9 ×10⁻⁶ cm/s
Animal or person [8]
  inhibition in vivo at 15 mg/kg: -4%
[9]
  remaining at 1 h: 91%
[10]
  solubility: 95.6 µM (≈ 39 µg/mL)
[11]
  concentration at 144 h: 2250 ng/mL
[12]
  concentration at 144 h: 125 ng/mL
[13]
  fraction unbound: 0.023
Animal or person [14]
  inhibition in vivo at 15 mg/kg: 88%
Animal or person [15]
  inhibition in vivo at 15 mg/kg: 94%
[16]
  concentration at 144 h: 1350 ng/mL
Animal or person [17]
  inhibition in vivo at 15 mg/kg: 14%
[18]
  concentration at 144 h: 1430 ng/mL
Animal or person [19]
  inhibition in vivo at 15 mg/kg: 18%
[20]
  remaining at 1 h: 100%
[21]
  fraction unbound: 0.041

## FC(F)(F)c1ccc(CNc2ccc(Cc3c[nH]c4ncc(Cl)cc34)cn2)cn1 [PEXIDARTINIB]
[22]
  pIC50: < 5.48
